Laboratory results published in patent publication US6497898B1, “Surfactant, and an emulsion-type cosmetic composition and a lipsome containing said surfactant” (Kanebo LTD, priority 1993, dated 2002).

System: skin
Test: Safety test: skin irritation patch test of the surfactants
Type: in vivo
Conditions: Sample (solution) per table head; patch on 20 subjects for 24 hours, evaluated 24 hours after removing; clear erythema = positive
Experimental: As a safety test on the above trehalose-6-fatty acid esters, irritation to skin was examinaed in accordance with the following procedures.
[…] Irritaion was evaluated 24 hours after removing the patch. […] Sodium laurylphosphate used as a control is a surfactant which is usually used in shampoos, body shampoos and the like.

CCCCCCCCCCCCCCCCCC(=O)OC[C@H]1O[C@H](O[C@H]2O[C@H](CO)[C@@H](O)[C@H](O)[C@H]2O)[C@H](O)[C@@H](O)[C@@H]1O [6-Stearoyl-trehalose, 6-stearoyl-trehalose]
Irritation to skin, positive, %: 0%

C=CCCCCCCCCC(=O)OCC1OC(OC2OC(CO)C(O)C(O)C2O)C(O)C(O)C1O (stereo not shown) [6-(10-Undecylenyl)-trehalose, 6-(10-undecylenyl)-trehalose]
Irritation to skin, positive, %: 0%

CCCCCCCCCCCC(=O)OCC1OC(OC2OC(CO)C(O)C(O)C2O)C(O)C(O)C1O (stereo not shown) [6-Lauroyl-trehalose, 6-lauroyl-trehalose]
Irritation to skin, positive, %: 0%

CCCCCCCCCCCCOP(=O)([O-])O.[Na+] [Monosodium lauryl phosphate, reference compound]
Irritation to skin, positive, %: 0.5%
